Tests used:
[1] = target: VvelCSP1 (Vespa velutina auraria, UniProt A0A384ZVP9); assay: Fluorescence competitive binding assay (1-NPN probe) with VvelCSP1
Protocol: (§1) Fluorescence competitive binding assays were employed to characterize the interactions between VvelCSPs and 13 volatiles shared between the elaiosomes of S. tuberosa and the cuticular hydrocarbons of honeybees. These tests were performed in 1 cm path length quartz cuvettes with an excitation wavelength of 337 nm and emission wavelength scanning from 400–450 nm. The volatiles and the fluorescent probe 1-NPN (1-N-phenylnaphthylamine), listed in Supplementary Table S2, were dissolved in methanol to prepare 100 mM stock solutions, which were then diluted to 1 mM working solutions [25]. To remove any potential endogenous ligands, the purified proteins were delipidated by three washes with an equal volume of dichloromethane (1:1 v/v). Each wash involved a 10-min incubation, and the process was followed by evaporation of the residual solvent under a gentle stream of nitrogen. Purified CSPs were resuspended in 20 mM Tris-HCl buffer (pH 7.5) to a final concentration of 2 μM. Binding parameters for CSP-NPN were determined by titration: 2 mL of CSP solution (2 μM) was titrated with 1-NPN (final concentrations: 2−24 μM). Maximum fluorescence intensity was recorded, and the dissociation constant was calculated. […] After incubation in the dark for 2 min, fluorescence quenching was measured. Half-maximal inhibitory concentration (IC50) values for volatiles were calculated from the competition curves, and their binding constants (Ki) were subsequently derived. The presented data, including IC50 and Ki values, originate from a single experiment under uniform conditions to ensure comparability (Supplementary Table S3).

[2] = target: VvelCSP4; assay: Fluorescence competitive binding assay (1-NPN probe) with VvelCSP4; design: species or system Vespa velutina auraria; conditions: for IC50: VvelCSP4 2 μM, 1-NPN 1 μM, Tris-HCl pH 7.5, single experiment, read-out: IC50 (ligand concentration displacing 50% of the fluorescence intensity of the CSPs/NPN complex); for Ki: VvelCSP4, derived from IC50, read-out: Ki (dissociation constant)
Protocol: as §1

[3] = target: CsasCSP16; design: method as in PMID 34082360; conditions: CsasCSP16 from Carposina sasakii ref 42; cited from earlier work

Sequence of VvelCSP1 (A0A384ZVP9 entry or part of it): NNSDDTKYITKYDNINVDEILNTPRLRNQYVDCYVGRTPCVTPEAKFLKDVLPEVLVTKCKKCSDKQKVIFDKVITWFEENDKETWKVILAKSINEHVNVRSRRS

Row | SMILES | Raw fluorescence intensity ([1]; VvelCSP1, chemical 0.5 μM) | Raw fluorescence intensity ([1]; VvelCSP1, chemical 1 μM) | Raw fluorescence intensity ([1]; VvelCSP1, chemical 2 μM) | Raw fluorescence intensity ([1]; VvelCSP1, chemical 4 μM) | Raw fluorescence intensity ([1]; VvelCSP1, chemical 6 μM) | Raw fluorescence intensity ([1]; VvelCSP1, chemical 8 μM) | Raw fluorescence intensity ([1]; VvelCSP1, chemical 12 μM) | Raw fluorescence intensity ([1]; VvelCSP1, chemical 16 μM) | IC50 [2] [µM] | Raw fluorescence intensity ([2]; VvelCSP4, chemical 0.5 μM) | Raw fluorescence intensity ([2]; VvelCSP4, chemical 1 μM) | Raw fluorescence intensity ([2]; VvelCSP4, chemical 2 μM) | Raw fluorescence intensity ([2]; VvelCSP4, chemical 4 μM) | Raw fluorescence intensity ([2]; VvelCSP4, chemical 6 μM) | Raw fluorescence intensity ([2]; VvelCSP4, chemical 8 μM) | Raw fluorescence intensity ([2]; VvelCSP4, chemical 12 μM) | Raw fluorescence intensity ([2]; VvelCSP4, chemical 16 μM) | Ki [2] [µM] | Ki [3] [µM]
1 | CCCCCCCCCCCCCCCCCCCCCCC [Tricosane] | 193.01 | 170.16 | 140.89 | 116.63 | 101.34 | 94.22 | 88.89 | 86.00 | 5.09 | 207.46 | 177.45 | 153.67 | 134.98 | 119.90 | 111.62 | 110.10 | 107.68 | 3.85 | –
2 | CCCCCCCC/C=C\CCCCCCCCCCCCC [Z-9-Tricosene] | 214.80 | 200.54 | 176.56 | 164.98 | 151.46 | 137.73 | 126.20 | 120.19 | 3.97 | 182.16 | 152.13 | 132.92 | 109.71 | 96.72 | 89.44 | 84.83 | 83.78 | 2.97 | –
3 | CCCCCCCCCCCCCCC [pentadecane] | – | – | – | – | – | – | – | – | – | – | – | – | – | – | – | – | – | – | 3.5
